How the values were obtained:
Cannabinoid receptor 1 = Cannabinoid receptor 1 (Rattus norvegicus, UniProt P20272); assay: Binding affinity for Cannabinoid receptor 1 by the ability to displace radiolabeled CP-55940 from purified rat forebrain synaptosomes; type: subcellular, Brain
Cannabinoid receptor 2 = Cannabinoid receptor 2 (Mus musculus, UniProt P47936); assay: Binding affinity for Cannabinoid receptor 2 by the ability to displace radiolabeled CP-55940 from mouse spleen synaptosomes; type: subcellular
Sequence of Cannabinoid receptor 2 (P47936 whole entry): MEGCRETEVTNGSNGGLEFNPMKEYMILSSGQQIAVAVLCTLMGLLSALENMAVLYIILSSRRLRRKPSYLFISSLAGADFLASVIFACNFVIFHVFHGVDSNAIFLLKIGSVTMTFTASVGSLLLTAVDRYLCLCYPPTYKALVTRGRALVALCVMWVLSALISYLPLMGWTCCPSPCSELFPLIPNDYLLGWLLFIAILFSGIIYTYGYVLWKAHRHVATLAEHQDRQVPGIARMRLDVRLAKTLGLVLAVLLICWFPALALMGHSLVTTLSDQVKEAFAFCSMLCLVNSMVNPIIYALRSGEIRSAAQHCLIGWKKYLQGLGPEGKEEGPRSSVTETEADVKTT

Sequence of Cannabinoid receptor 1 (P20272 whole entry): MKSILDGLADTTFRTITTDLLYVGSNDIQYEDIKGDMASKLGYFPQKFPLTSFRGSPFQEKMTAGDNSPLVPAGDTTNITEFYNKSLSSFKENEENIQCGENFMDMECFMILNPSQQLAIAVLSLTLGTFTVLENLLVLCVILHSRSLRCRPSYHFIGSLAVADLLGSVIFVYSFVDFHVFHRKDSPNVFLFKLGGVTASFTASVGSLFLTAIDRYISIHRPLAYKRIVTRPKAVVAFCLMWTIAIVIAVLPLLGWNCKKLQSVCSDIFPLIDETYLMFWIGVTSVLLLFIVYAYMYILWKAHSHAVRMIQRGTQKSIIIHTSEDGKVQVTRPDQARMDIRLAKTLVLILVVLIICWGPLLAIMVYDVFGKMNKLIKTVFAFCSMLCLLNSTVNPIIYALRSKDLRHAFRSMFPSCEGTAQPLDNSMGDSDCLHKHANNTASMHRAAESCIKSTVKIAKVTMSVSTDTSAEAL

Row | Compound | Ki (Cannabinoid receptor 1) [µM] | Ki (Cannabinoid receptor 2) [µM]
1 | CCCCCCC1(c2cc(O)c3c(c2)OC(C)(C)[C@@H]2CC=C(C)C[C@@H]32)CC1(Br)Br (some centres not stated) | 0.00071 | 0.001
2 | CCCCCCC(C)(C)c1cc(O)c2c(c1)OC(C)(C)[C@@H]1CC=C(C)C[C@@H]21 | 0.00083 | 0.00049
3 | C=C(C)C1CCC(C)=CC1c1c(O)cc(C2(CCCCCC)CC2)cc1O (configuration not stated) | 0.059 | 0.099
4 | C=C(C)C1CCC(C)=CC1c1c(O)cc(C2(CCCCCC)CC2(Cl)Cl)cc1O (configuration not stated) | 0.665 | 0.033
5 | C=C(C)C1CCC(C)=CC1c1c(O)cc(C2(CCCCCC)SCCS2)cc1O (configuration not stated) | 0.136 | 0.05
6 | C=C(C)C1CCC(C)=CC1c1c(O)cc(C2(CCCCCC)CC2(Br)Br)cc1O (configuration not stated) | 0.189 | 0.063
7 | CCCCCCC1(c2cc(O)c3c(c2)OC(C)(C)[C@@H]2CC=C(C)C[C@@H]32)CC1(Cl)Cl (some centres not stated) | 0.00127 | 0.00029
8 | CCCCCCC1(c2cc(O)c3c(c2)OC(C)(C)[C@@H]2CC=C(C)C[C@@H]32)CC1 | 0.00044 | 0.00086
9 | C=C(C)[C@@H]1CCC(C)=C[C@H]1c1c(O)cc(CCCCC)cc1O [CANNABIDIOL] |  | 0.23
